Experimental data: patent publication US20030096782A1, “Expression profiling in the intact human heart” (The Regents of the University of Colorado, priority 2001, published 2003)

System: subjects with idiopathic dilated cardiomyopathy (IDC)
Test: Serial study of subjects with idiopathic dilated cardiomyopathy treated with β-blocking agents or placebo (LVEF / phenotype)
Type: in vivo, human
Conditions: for phenotype: baseline versus after 6 months of treatment; for left ventricular ejection fraction (LVEF): subjects with baseline IDC, 6-7 month period, change versus baseline
Procedure: Dynamic expression profiling was performed in the intact human heart in 8 subjects with idiopathic dilated cardiomyopathy (IDC), on RNA extracted from RV septal endomyocardial biopsies performed at baseline and after 6 months treatment with β-blocking agents (n=6) or placebo (n=2). Affmetrix™ U95a GeneChips, which contain 12,625 gene sequences/chip, were used for expression profiling.
Endomyocardial biopsies were obtained during a 6-7 month period from eight subjects with baseline idiopathic dilated cardiomyopathy (IDC). Of these subjects, six were treated with the β-blocking agents carvedilol and metoprolol, and two were treated with placebo.
Biopsied samples obtained from these subjects were analyzed by quantitative reverse transcript polymerase chain reaction (QRT PCR), and the mRNAs obtained were further analyzed by Affymetrix Gene chip. Subjects with ideal substantial noise ratios were categorized in the low scaling factor group and those with substantial noise, which compromised quantitation, categorized in the high scaling factor group. Gene expression patterns were further compared between the seven subjects showing improved phenotypes and the one subject showing worsening phenotype. Of the four subjects in the low scaling group showing an improved LVEF, one had received placebo, one carvedilol, and one metoprolol, with the fourth subject treated with placebo showing a decrease LVEF. Of the four subjects in the high scaling group three received carvedilol and one received metoprolol.
Serial measurements of myocardial gene expression were performed on 4 subjects with […], at baseline and after 6 months of treatment with β-blocking agents (n=2, 1 carvediol and 1 metroprolol) or placebo (n=2). RNA was extracted from endomyocardial biopsy material, and expression profiling was performed via Affymetrix U95a GeneChips. […] In the three subjects who improved, a between-subject anaylsis was performed at baseline, and compared to a within-subject comparison between baseline and end of study.

Row | SMILES | phenotype | left ventricular ejection fraction (LVEF)
1 | COc1ccccc1OCCNCC(O)COc1cccc2[nH]c3ccccc3c12 (stereo not shown) [carvedilol] | improvement in phenotype | improved
2 | COCCc1ccc(OCC(O)CNC(C)C)cc1 (stereo not shown) [metoprolol] | improvement in phenotype | improved
